Earlier results on 1 compound are cited in patent US8003118B2 (priority 2005, dated 2011).

Consider `CO[C@H]1/C=C/O[C@@]2(C)Oc3c(C)c(O)c4c(O)c(c5c(nc6cc(C)ccn65)c4c3C2=O)NC(=O)/C(C)=C\C=C\[C@H](C)[C@H](O)[C@@H](C)[C@@H](O)[C@@H](C)[C@H](OC(C)=O)[C@@H]1C` [rifaximin, (2S,16Z,18E,20S,21S,22R,23R,24R,25S,26S,27S,28E)-5,6,21,23,25-pentahydroxy-27-methoxy-2,4,11,16,20,22,24,26-octamethyl-2,7-(epoxypentadeca-[1,11,13]trienimino)benzofuro[4,5-e]pyrido[1,2-α]-benzimidazole-1,15(2H)-dione,25-acetate], for which the “solubility in water” value is “practically insoluble”.
